What follows are molecules tested against T1, KRAS (aa 1-169) G12C, C51S, C80L, C118S (Homo sapiens, UniProt P01116, C118S/C51S/C80L/G12C) (assay: KRAS G12C SOS1-mediated nucleotide exchange / GST-cRaf RBD binding FRET assay). Details: GDP-loaded KRAS G12C pre-incubated with compound at 24° C. for 3 hrs; SOS1, GTPγS and GST-cRaf RBD added; FRET 665 nm/620 nm.
T1 construct: The KRAS (aa 1-169) G12C, C51S, C80L, C118S with a His-tag; made in house
T1 sequence (P01116 1-169 isoform P01116-2 G12C/C51S/C80L/C118S): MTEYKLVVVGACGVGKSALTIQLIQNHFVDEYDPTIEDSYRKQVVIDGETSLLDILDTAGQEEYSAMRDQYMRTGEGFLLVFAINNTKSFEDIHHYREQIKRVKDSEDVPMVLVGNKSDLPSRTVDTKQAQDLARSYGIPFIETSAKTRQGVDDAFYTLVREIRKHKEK
Type: biochemical
Method: Biochemical Functional Assay:
The KRAS (aa 1-169) G12C, C51S, C80L, C118S with a His-tag was expressed, purified and loaded with GDP in house. All protein and substrate solutions were prepared in assay buffer containing 25 mM HEPES pH7.5, 10 mM MgCl2, and 0.01% Triton X-100. Purified GDP-loaded KRAS (aa 1-169) G12C, C51S, C80L, C118S protein was pre-incubated with a serially diluted compound at 24° C. for 3 hrs. Purified SOS1 (aa 564-1049) protein, GTPγS (Sigma) and GST-cRaf RBD (aa 1-149) were then added to each well and incubated at 24° C. for additional 3 hrs. […] Following the incubation, Mab Anti-6HIS-Tb cryptate (Cisbio) and Mab Anti GST-XL665 (Cisbio) were added and further incubated at 24° C. for 3 hrs. The binding interaction between active GTPγS KRAS G12C and GST-cRaf RBD brings the Tb and XL665 into close proximity enabling an increased FRET signal (Ex337 nm, Em665 nm/620 nm). The inhibition percentage of nucleotide exchange reaction in presence of increasing concentrations of compounds was calculated based on the ratio of fluorescence at 665 nm to that at 620 nm detected on a BMG PHERAstar FSX instrument. The IC50 value of each compound was calculated from fitting the data to the four-parameter logistic model by Dotmatics.
With `C=CC(=O)N1CCN(c2nc(OC[C@@H]3CCCN3C)nc3c2CN(Cc2ccccc2)C3=O)C[C@@H]1CC#N` [Example 44] the IC50 was 9010 nM.
In the case of `C=CC(=O)N1CCN(c2nc(OC[C@@H]3CCCN3C)nc3c2CN(C(=O)c2cccc4cccc(O)c24)C3)C[C@@H]1CC#N` [Example 56], the IC50 is reported as 941 nM.
`C=CC(=O)N1CCN(c2nc(OC[C@@H]3CCCN3C)nc3c2CN(c2cccc4c2CCC4)C3)C[C@@H]1CC#N` [Example 27, 2-((S)-1-acryloyl-4-(6-(2,3-dihydro-1H-inden-4-yl)-2-(((S)-1-methylpyrrolidin-2-yl)methoxy)-6,7-dihydro-5H-pyrrolo[3,4-d]pyrimidin-4-yl)piperazin-2-yl)acetonitrile] gave an IC50 of 3720 nM.
Work on `C=CC(=O)N1CCN(c2nc(OC[C@@H]3CCCN3C)nc3c2CN(Cc2ccc(F)c4ccccc24)C3)C[C@@H]1CC#N` [Example 10, 2-((S)-1-acryloyl-4-(6-((4-fluoronaphthalen-1-yl)methyl)-2-(((S)-1-methylpyrrolidin-2-yl)methoxy)-6,7-dihydro-5H-pyrrolo[3,4-d]pyrimidin-4-yl)piperazin-2-yl)acetonitrile] yielded an IC50 of 415 nM.
Work on `C=CS(=O)(=O)N1CCN(c2nc(OC[C@@H]3CCCN3C)nc3c2CN(Cc2cccc4ccccc24)C3)CC1` [Example 3, (S)-2-((1-methylpyrrolidin-2-yl)methoxy)-6-(naphthalen-1-ylmethyl)-4-(4-(vinylsulfonyl)piperazin-1-yl)-6,7-dihydro-5H-pyrrolo[3,4-d]pyrimidine] yielded an IC50 of 23700 nM.
With `C=CC(=O)N1CCN(c2nc(OC[C@@H]3CCCN3C)nc3c2CN(Cc2cccc(C)c2C)C3)C[C@@H]1CC#N` [Example 5, 2-((S)-1-acryloyl-4-(6-(2,3-dimethylbenzyl)-2-(((S)-1-methylpyrrolidin-2-yl)methoxy)-6,7-dihydro-5H-pyrrolo[3,4-d]pyrimidin-4-yl)piperazin-2-yl)acetonitrile] the IC50 was 56.1 nM.
`C=CC(=O)N1CCN(c2nc(OC[C@@H]3CCCN3C)nc3c2CN(C(=O)c2cccc4cccc(Cl)c24)C3)C[C@@H]1CC#N` [Example 30, 2-((S)-1-acryloyl-4-(6-(8-chloro-1-naphthoyl)-2-(((S)-1-methylpyrrolidin-2-yl)methoxy)-6,7-dihydro-5H-pyrrolo[3,4-d]pyrimidin-4-yl)piperazin-2-yl)acetonitrile] was tested, and the IC50 was 15 nM.
Molecule `C=CC(=O)N1CCN(c2nc(OC[C@@H]3CCCN3C)nc3c2CN(C(=O)c2c(C)ccc4[nH]ncc24)C3)C[C@@H]1CC#N` [Example 31, 2-((S)-1-acryloyl-4-(6-(5-methyl-1H-indazole-4-carbonyl)-2-(((S)-1-methylpyrrolidin-2-yl)methoxy)-6,7-dihydro-5H-pyrrolo[3,4-d]pyrimidin-4-yl)piperazin-2-yl)acetonitrile] has an IC50 of 301 nM.
`C=CC(=O)N1CCN(c2nc(OC[C@@H]3CCCN3C)nc3c2CN(c2ccc4ccccc4c2)C3)C[C@@H]1CC#N` [Example 26] was tested, and the IC50 was 1080 nM.
In the case of `C=CC(=O)N1CCN(c2nc(OC[C@@H]3CCCN3C)nc3c2CN(C(=O)c2cccc4cccc(C)c24)C3)C[C@@H]1CC#N` [Example 33, 2-((S)-1-acryloyl-4-(6-(8-methyl-1-naphthoyl)-2-(((S)-1-methylpyrrolidin-2-yl)methoxy)-6,7-dihydro-5H-pyrrolo[3,4-d]pyrimidin-4-yl)piperazin-2-yl)acetonitrile], the IC50 is reported as 22.4 nM.
Work on `C=CC(=O)N1CCN(c2nc(OC[C@@H]3CCCN3C)nc3c2CN(Cc2cccc4cccc(Cl)c24)C3)C[C@@H]1CC#N` [Example 9, 2-((S)-1-acryloyl-4-(6-((8-chloronaphthalen-1-yl)methyl)-2-(((S)-1-methylpyrrolidin-2-yl)methoxy)-6,7-dihydro-5H-pyrrolo[3,4-d]pyrimidin-4-yl)piperazin-2-yl)acetonitrile] yielded an IC50 of 265 nM.
`C=CC(=O)N1CCN(c2nc(OC[C@@H]3CCCN3C)nc3c2CN(Cc2ccc4ccccc4c2)C3)C[C@@H]1CC#N` [Example 20, 2-((S)-1-acryloyl-4-(2-(((S)-1-methylpyrrolidin-2-yl)methoxy)-6-(naphthalen-2-ylmethyl)-6,7-dihydro-5H-pyrrolo[3,4-d]pyrimidin-4-yl)piperazin-2-yl)acetonitrile] was tested, and the IC50 was 2880 nM.

Source: patent publication US12630552B2, “Inhibitors of KRAS G12C” (BEIGENE, LTD., priority 2019, dated 2026)
